In US20250074920A1, “MACROCYCLIC COMPOUNDS AND USE AS KINASE INHIBITORS” (BLOSSOMHILL THERAPEUTICS, INC., priority 2022, published 2025):

Experiments:
Experiment in all cases: KINOMEscan kinase binding assay
[1] = test system: ABL1(F317L)-nonphosphorylated; details: at 1 μM
How it was run: (§1)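 We measured how much kinase stayed bound to an immobilized small-molecule ligand when test compound was present. Binding ran at room temperature for 1 h, and the kinase eluted from the beads was counted by qPCR. Lower % Ctrl indicated tighter compound binding.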

[2] = test system: ABL1(F317L)-phosphorylated; details: at 1 μM
How it was run: as §1

[3] = test system: ABL1(H396P)-nonphosphorylated; details: at 1 μM
How it was run: as §1

[4] = test system: ABL1(Q252H)-nonphosphorylated; details: at 1 μM
How it was run: as §1

[5] = test system: ABL1(T315I)-phosphorylated; details: at 1 μM
How it was run: as §1

[6] = test system: ALK(C1156Y); details: at 1 μM
How it was run: as §1

[7] = test system: BTK; details: at 1 μM
How it was run: as §1

[8] = test system: CSF1R-autoinhibited; details: at 1 μM
How it was run: as §1

[9] = test system: CTK; details: at 1 μM
How it was run: as §1

[10] = test system: EGFR(L858R); details: at 1 μM
How it was run: as §1

[11] = test system: EGFR(L861Q); details: at 1 μM
How it was run: as §1

[12] = test system: EPHA1; details: at 1 μM
How it was run: as §1

[13] = test system: EPHA7; details: at 1 μM
How it was run: as §1

[14] = test system: EPHA8; details: at 1 μM
How it was run: as §1

[15] = test system: EPHB1; details: at 1 μM
How it was run: as §1

[16] = test system: EPHB3; details: at 1 μM
How it was run: as §1

[17] = test system: EPHB6; details: at 1 μM
How it was run: as §1

[18] = test system: FGFR3(G697C); details: at 1 μM
How it was run: as §1

[19] = test system: FLT1; details: at 1 μM
How it was run: as §1

[20] = test system: FLT3(D835V); details: at 1 μM
How it was run: as §1

[21] = test system: FLT3(K663Q); details: at 1 μM
How it was run: as §1

[22] = test system: FLT3(N841I); details: at 1 μM
How it was run: as §1

[23] = test system: FLT3-autoinhibited; details: at 1 μM
How it was run: as §1

[24] = test system: FRK; details: at 1 μM
How it was run: as §1

[25] = test system: INSRR; details: at 1 μM
How it was run: as §1

[26] = test system: ITK; details: at 1 μM
How it was run: as §1

[27] = test system: JAK1(JH1domain-catalytic); details: for % Ctrl: JAK1(JH1domain-catalytic), at 1 μM; for Kd: read-out: JAK1(JH1 domain-catalytic) Kd
How it was run: as §1

[28] = test system: JAK2(JH1domain-catalytic); details: for % Ctrl: JAK2(JH1domain-catalytic), at 1 μM; for Kd: read-out: JAK2(JH1 domain-catalytic) Kd
How it was run: as §1

[29] = test system: KIT(A829P); details: at 1 μM
How it was run: as §1

[30] = test system: KIT(V559D); details: at 1 μM
How it was run: as §1

[31] = test system: KIT(V559D, T670I); details: at 1 μM
How it was run: as §1

[32] = test system: MERTK; details: at 1 μM
How it was run: as §1

[33] = test system: MET(M1250T); details: at 1 μM
How it was run: as §1

[34] = test system: MET(Y1235D); details: at 1 μM
How it was run: as §1

[35] = test system: PDGFRB; details: at 1 μM
How it was run: as §1

[36] = test system: SRC; details: at 1 μM
How it was run: as §1

[37] = test system: SYK; details: at 1 μM
How it was run: as §1

[38] = test system: TEC; details: at 1 μM
How it was run: as §1

[39] = test system: TRKB; details: at 1 μM
How it was run: as §1

[40] = test system: ZAP70; details: at 1 μM
How it was run: as §1

Cc1cc2c([nH]1)/C=C1\C(=O)Nc3c(Cl)cc(cc31)-c1cn(C)nc1COC[C@@H](C)NC2=O [Cpd. 3, [3a(4)Z,10R]-20-chloro-6,10,15-trimethyl-10,11,13,15-tetrahydro-2H-1,17-(ethanediylidene)pyrazolo[4,3-m]dipyrrolo[3,2-f:3′,4′-i][1,4]oxazacyclopentadecine-3,8(5H,9H)-dione]
% Ctrl [1]: 95%
% Ctrl [2]: 93%
% Ctrl [3]: 100%
% Ctrl [4]: 92%
% Ctrl [5]: 69%
% Ctrl [6]: 89%
% Ctrl [7]: 86%
% Ctrl [8]: 71%
% Ctrl [9]: 80%
% Ctrl [10]: 96%
% Ctrl [11]: 98%
% Ctrl [12]: 85%
% Ctrl [13]: 100%
% Ctrl [14]: 90%
% Ctrl [15]: 100%
% Ctrl [16]: 93%
% Ctrl [17]: 86%
% Ctrl [18]: 89%
% Ctrl [19]: 92%
% Ctrl [20]: 100%
% Ctrl [21]: 100%
% Ctrl [22]: 90%
% Ctrl [23]: 93%
% Ctrl [24]: 97%
% Ctrl [25]: 99%
% Ctrl [26]: 100%
% Ctrl [27]: 100%
Kd [27]: > 10 µM
% Ctrl [28]: 93%
Kd [28]: > 10 µM
% Ctrl [29]: 99%
% Ctrl [30]: 100%
% Ctrl [31]: 100%
% Ctrl [32]: 98%
% Ctrl [33]: 100%
% Ctrl [34]: 100%
% Ctrl [35]: 100%
% Ctrl [36]: 100%
% Ctrl [37]: 68%
% Ctrl [38]: 96%
% Ctrl [39]: 100%
% Ctrl [40]: 55%

Cc1cc2c([nH]1)/C=C1\C(=O)Nc3ccc(cc31)-c1c(nn(C)c1C)COCCN(C)C2=O [Cpd. 2, [3a(4)Z]-6,9,15,16-tetramethyl-10,11,13,15-tetrahydro-2H-1,17-(ethanediylidene)pyrazolo[4,3-m]dipyrrolo[3,2-f:3′,4′-i][1,4]oxazacyclopentadecine-3,8(5H,9H)-dione]
% Ctrl [1]: 87%
% Ctrl [2]: 78%
% Ctrl [3]: 35%
% Ctrl [4]: 57%
% Ctrl [5]: 5.3%
% Ctrl [6]: 93%
% Ctrl [7]: 100%
% Ctrl [8]: 100%
% Ctrl [9]: 93%
% Ctrl [10]: 78%
% Ctrl [11]: 62%
% Ctrl [12]: 100%
% Ctrl [13]: 89%
% Ctrl [14]: 92%
% Ctrl [15]: 99%
% Ctrl [16]: 100%
% Ctrl [17]: 93%
% Ctrl [18]: 93%
% Ctrl [19]: 79%
% Ctrl [20]: 7.9%
% Ctrl [21]: 47%
% Ctrl [22]: 24%
% Ctrl [23]: 83%
% Ctrl [24]: 98%
% Ctrl [25]: 100%
% Ctrl [26]: 80%
% Ctrl [27]: 100%
Kd [27]: > 10 µM
% Ctrl [28]: 91%
Kd [28]: 2.3 µM
% Ctrl [29]: 92%
% Ctrl [30]: 98%
% Ctrl [31]: 82%
% Ctrl [32]: 100%
% Ctrl [33]: 98%
% Ctrl [34]: 87%
% Ctrl [35]: 79%
% Ctrl [36]: 100%
% Ctrl [37]: 100%
% Ctrl [38]: 83%
% Ctrl [39]: 12%
% Ctrl [40]: 96%

Cc1cc2c([nH]1)/C=C1\C(=O)Nc3c(Cl)cc(cc31)-c1cn(C)nc1COC[C@@H](C)N(C)C2=O [Cpd. 5, [3a(4)Z,10R]-20-chloro-6,9,10,15-tetramethyl-10,11,13,15-tetrahydro-2H-1,17-(ethanediylidene)pyrazolo[4,3-m]dipyrrolo[3,2-f:3′,4′-i][1,4]oxazacyclopentadecine-3,8(5H,9H)-dione]
% Ctrl [1]: 86%
% Ctrl [2]: 83%
% Ctrl [3]: 98%
% Ctrl [4]: 79%
% Ctrl [5]: 70%
% Ctrl [6]: 90%
% Ctrl [7]: 68%
% Ctrl [8]: 75%
% Ctrl [9]: 84%
% Ctrl [10]: 90%
% Ctrl [11]: 94%
% Ctrl [12]: 82%
% Ctrl [13]: 98%
% Ctrl [14]: 77%
% Ctrl [15]: 92%
% Ctrl [16]: 89%
% Ctrl [17]: 92%
% Ctrl [18]: 93%
% Ctrl [19]: 93%
% Ctrl [20]: 89%
% Ctrl [21]: 87%
% Ctrl [22]: 86%
% Ctrl [23]: 87%
% Ctrl [24]: 80%
% Ctrl [25]: 99%
% Ctrl [26]: 96%
% Ctrl [27]: 100%
Kd [27]: > 10 µM
% Ctrl [28]: 89%
Kd [28]: > 10 µM
% Ctrl [29]: 84%
% Ctrl [30]: 96%
% Ctrl [31]: 95%
% Ctrl [32]: 86%
% Ctrl [33]: 100%
% Ctrl [34]: 100%
% Ctrl [35]: 100%
% Ctrl [36]: 100%
% Ctrl [37]: 90%
% Ctrl [38]: 94%
% Ctrl [39]: 100%
% Ctrl [40]: 63%
